Experimental data from the METLIN SMRT retention time set (Domingo-Almenara et al. 2019).

Assay: gradient 5% acetonitrile 3 min, to 50% in 2 min, to 85% in 15 min, held 3 min, 100 µL/min
Settings: column: Zorbax Extend-C18 2.1 x 50 mm; eluents: water / acetonitrile, 0.1% formic acid
How it was run: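 Values are retention times taken from adduct peaks that software picked and an analyst inspected. The pure standards were run as mixtures of ~100 molecules on HPLC linked to a quadrupole time-of-flight mass spectrometer, in positive and negative ionization mode. A Zorbax Extend-C18 column (2.1 × 50 mm, 1.8 μm) was used at 100 μL/min with water and acetonitrile, each including 0.1% formic acid.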

Row | SMILES | RP-LC retention time [s]
1 | O=C(NC1CCCC1)N1CCC(OC2CCN(Cc3ccccc3)CC2)CC1 | 634
2 | COc1ccc(-c2c(C)noc2NC(C)=O)cc1S(=O)(=O)Nc1ccc(C)cc1Br | 832
3 | CN(C)CCNC(=O)c1ccc2c(c1)N(Cc1ccc(F)cc1)C(=O)CO2 | 616
4 | COc1ccc(-n2c(=O)n(C)c(=O)c3cc(C(=O)Nc4cc(C)ccc4F)cnc32)cc1 | 912
5 | O=C(CC1(O)C(=O)Nc2c(Cl)cc(Cl)cc21)c1ccc([N+](=O)[O-])cc1 (configuration not stated) | 800
6 | CCN1CCCC1CNC(=O)C1c2ccccc2C(=O)N(CCOC)C1c1cccs1 (configuration not stated) | 556
7 | COc1ccccc1-c1cc(C(F)(F)F)n2ncc(C(=O)OCCN3CCOCC3)c2n1 | 710
8 | Cc1cc(C)n(CC(=O)N(C)CC2(C)CCOCC2)n1 | 612
9 | O=C(CN1C(=O)C2CCCCN2c2ccc(S(=O)(=O)N3CCCC3)cc21)N1CCCCCC1 (configuration not stated) | 918
10 | O=C(c1cc(-c2ccncc2)nc2ccc(Cl)cc12)N1CCN(c2ccccn2)CC1 | 604
11 | CC1(C)CC(=O)c2cn(-c3ccccc3)c(=O)c(C(=O)N3CCN(C4CCCCC4)CC3)c2C1 | 586
12 | CN(C)c1ncncc1N1CCC(C(=O)NC2CC2)CC1 | 554
13 | Cc1cccc(N2CCN(c3ccc4cc(S(=O)(=O)N5CCCC5)ccc4n3)CC2)c1C | 1150
14 | O=C(Cn1ccc2ccn(CC3CC3)c2c1=O)N1CCOCC1 | 682
15 | CC(=O)Nc1ccc(C2(C(=O)NCc3ccco3)CCC2)cc1 | 691
16 | CCCNC(=O)C1CCCN(c2ccc(SCC(=O)Nc3ccccc3F)nn2)C1 (configuration not stated) | 620
17 | Cc1ccccc1Nc1c(-c2cccc(Br)c2)nc2ccc(Br)cn12 | 1150
18 | CN(C)CC1CN(C(=O)c2ccc(F)c(F)c2)CC12CCOCC2 (configuration not stated) | 578
19 | CCOC(=O)N1CCN(C(=O)CSc2ncnc3c2nnn3CC)CC1 | 657
20 | COC(=O)c1cccc(C(=O)NC2(c3nc(C)no3)CCCCC2)c1 | 849
21 | Cc1noc2ncnc(NCCN(C)Cc3ccccc3)c12 | 580
22 | CCc1ccc(S(=O)(=O)NCCOc2ccc(-c3ccco3)nn2)s1 | 804

Row | SMILES | RP-LC retention time [s]
23 | O=C(NCCC1=CCCCC1)c1ccc2c(c1)NC(=O)C1CCCCN21 (configuration not stated) | 930
24 | CCCC(=O)NCCc1c2n(c3ccc(OC)cc13)CCCc1ccccc1-2 | 1150
25 | Cc1ccc(-c2noc(Cc3nnc(-c4ccc(C)c(F)c4)o3)n2)cc1C | 1210
26 | CCOC(=O)c1c(C)oc2ncnc(NCCN3CCN(c4ccc(OC)cc4)CC3)c12 | 716
27 | O=C(COc1ccccc1)N1CCCC(OCc2nc(C3CC3)no2)C1 (configuration not stated) | 610
28 | CN1CCCN(C(=O)c2cn3ccnc(-c4ccccc4)c3n2)CC1 | 710
29 | Cc1ccc(Nc2nc(-c3ccc(C(C)C)cc3)cs2)nc1 | 1130
30 | Cc1ccc(C)c(S(=O)(=O)N2CCc3nc[nH]c3C2)c1 | 627
31 | Cc1cccc(N2CCN(C(=O)Cn3nc(C(=O)N4CCCC4)c4ccccc43)CC2)c1C | 1020
32 | Cc1nc(-c2ccc3c(c2)n(CC(=O)N2CCC4(CC2)OCCO4)c(=O)n3C(C)C)no1 | 720
33 | Cc1ccc(S(=O)(=O)Nc2ccc(Nc3cc(-n4cccn4)ncn3)cc2)c(C)c1 | 888
34 | CCc1ccc(CNC(=O)C2CCCN(c3nn4c(=O)c5c(nc4s3)CCCC5)C2)cc1 (configuration not stated) | 983
35 | CNC(=O)C1CCCN(c2nc3ncn(CC(=O)N4CCc5ccccc5C4)c(=O)c3s2)C1 (configuration not stated) | 666
36 | COc1ccc(OC)c(NC(=O)Cn2c(=O)nc(N3CCC(C)CC3)c3ccccc32)c1 | 859
37 | Cc1oc2ncn(CC(=O)N3CCC(C(N)=O)CC3)c(=O)c2c1C | 613
38 | O=C(CCc1ccc2nc[nH]c2c1)Nc1ccc2c(c1)OCCO2 | 591
39 | Cc1ccc(-c2cc3c4nn(CC(=O)NC5CCCC5)c(=O)n4ccn3n2)cc1C | 918
40 | CSc1ccc(CCNC(=O)Cn2nc(-n3cccc3)c3c(C)cc(C)nc32)cc1 | 1050
41 | CCOC(=O)c1ncoc1-c1ccccc1C(=O)NC(C)C | 676
42 | Cc1nn(-c2nc(-c3ccc(Cl)cc3)cs2)c(C)c1CC(=O)Nc1cccc(C(F)(F)F)c1 | 1380
43 | O=C(c1ccccc1F)N1CCCn2cc(-c3ccccc3F)nc21 | 792
44 | CCc1ccc(-c2ccc(-n3nc(C)c(S(=O)(=O)N4CCOCC4)c3C)nn2)cc1 | 1070

Row | SMILES | RP-LC retention time [s]
45 | CCOC(=O)c1[nH]c(C)c(C(=O)C(C)N(CC(C)C)C(=O)c2ccc(Cl)cc2)c1C (configuration not stated) | 1080
46 | Cc1cc(C(=O)N2C[C@@H](CO)[C@H](N(C)C)C2)ccc1Br | 597
47 | Cc1noc(C)c1C(=O)N1CCCC1c1ccccc1Cl (configuration not stated) | 838
48 | CCN1C(=O)COc2ccc(-c3csc(NC(=O)c4cccc(Br)c4)n3)cc21 | 1100
49 | COc1cc([C@@H]2c3cc4c(cc3[C@H](O)[C@@H](CO)[C@@H]2C(=O)NCCCN(C)C)OCO4)cc(OC)c1OC | 596
50 | O=C(CN1C(=O)C(C(=O)N2CCCCCC2)Sc2ccccc21)N1CCN(c2ccccn2)CC1 (configuration not stated) | 650
51 | CC(C)C(=O)NCCc1csc(C2CCN(C(=O)NC(C)(C)C)CC2)n1 | 681
52 | CCN(CC)C(=O)c1ccc2oc(CN3CCN(C(=O)NC(C)(C)C)CC3)nc2c1 | 628
53 | CCOC(=O)C1CCN(C(=O)Cn2cnc3nc4c(cc3c2=O)CCCC4)CC1 | 678
54 | CCc1ccc(CNC(=O)c2cn(-c3ccc(-c4nc(C)no4)cn3)cn2)cc1 | 805
55 | COc1ccc(NC(=O)C2CCCN(c3ccc(=O)n(-c4ccc(F)cc4)n3)C2)cc1 (configuration not stated) | 828
56 | Cc1ccc2c(Nc3ccc4c(c3)OCCO4)c(C(=O)N3CCC(C)CC3)cnc2n1 | 649
57 | CC(C)N1CCn2cc(S(=O)(=O)Nc3ccc(Cl)cc3F)cc2C1=O | 812
58 | CCCCNC(=O)c1cccc2c1CCN2C(=O)C1CC1 | 764
59 | COc1cc(OC)c(NC(=O)N2CCC(n3c(C)nc4cccnc43)CC2)cc1Cl | 711
60 | O=C(NCc1ccccc1)C1=Cc2ccccc2OC=C1 | 933
61 | Cc1cc(C)cc(OCc2nc(CCN(C)C(=O)COc3ccccc3)no2)c1 | 1030
62 | Cc1ccc(-c2nnc(-c3nn(C)c4c3CN(S(=O)(=O)c3ccc(C(C)C)cc3)CC4)o2)cc1 | 1160
63 | CC1CCN(c2cc(-n3cnc(C(=O)N4CCC(N5CCCCC5)CC4)c3)ncn2)CC1 | 662
64 | Cc1cccc(-c2noc(CSc3nc4cc5c(cc4c(=O)n3Cc3ccccc3)OCO5)n2)c1 | 1330
65 | COCCN1C(=O)CS(=O)(=O)C12CCN(C(=O)C1(c3ccccc3)CC1)CC2 | 685
66 | CCc1nn2c(CNS(=O)(=O)c3cccc(F)c3)c(-c3ccccc3)nc2s1 | 935

Row | SMILES | RP-LC retention time [s]
67 | CN(C)S(=O)(=O)c1ccc(-c2nnc(C(=O)NCCC3=CCCCC3)o2)cc1 | 941
68 | COC(=O)c1nc(NC(=O)Cn2nc3c(cc2=O)CCCC3)sc1Cc1ccccc1 | 868
69 | CCN1CCN(c2c(S(=O)(=O)c3ccc(C)c(C)c3)cnc3ccc(OC)cc23)CC1 | 679
70 | Cn1nccc1C(=O)N1CC2CN(S(=O)(=O)c3cccc(F)c3)CC(C1)O2 | 693
71 | C[C@H]1CN(C(=O)c2ccccc2F)C[C@@H]1c1nc(-c2ccccc2)no1 | 1020
72 | COc1ccc2[nH]cc(CCNC(=O)CCc3nnc(C(=O)Nc4ccccc4)s3)c2c1 | 803
73 | Cc1ccc(Cl)cc1NC(=O)Cc1c(C)nn(-c2nc(-c3ccccc3)cs2)c1C | 1230
74 | Cc1nc2c(sc3nc(-c4ccccc4)ccc32)c(=O)n1CC(=O)Nc1cccc(C(F)(F)F)c1 | 1160
75 | CC(=O)Nc1ccc(CC(=O)O)cc1 | 620
76 | O=C(Nc1cnc(N2CCCC2)nc1)c1cccc(Br)c1 | 796
77 | O=S(=O)(c1cc(-c2nnc(C3CC3)o2)co1)N1CCCCC1 | 839
78 | CCN(CC)CCCNC(=O)C(C)n1nc(C)c2c(C)n(-c3ccccc3)nc2c1=O (configuration not stated) | 621
79 | CC(=O)N[C@@H]1CN(C(=O)COc2ccc(Cl)cc2)C[C@H]1CO | 633
80 | O=C(CN1c2ccc(F)cc2-c2ccccc2S1(=O)=O)Nc1ccccc1 | 936
81 | COc1ccc(-c2nnc(-c3ccc(Cl)c(S(=O)(=O)N4CCOCC4)c3)o2)cc1 | 897
82 | O=C(c1ccsc1)N1[C@H]2CC[C@@H]1c1cnc(-c3ccc(F)cc3)nc1C2 | 952
83 | Cc1ccc(Cl)cc1NC(=O)N1CCN(c2ccc(=O)n(-c3ccccc3)n2)CC1 | 838
84 | CCCn1c(-c2cccc(C(=O)NCc3ccccc3C(F)(F)F)c2)nc2cccnc21 | 911
85 | CN(C)C(=O)CN1C(=O)COc2ccc(C(=O)N3CCN(c4ccccc4)CC3)cc21 | 702
86 | CCn1cc(C(=O)NCc2ccc(F)cc2)c2cccnc21 | 771
87 | CCN1C(=O)c2cc(S(=O)(=O)Nc3cc(F)ccc3F)ccc2Oc2cccnc21 | 980
